Measured values published in US10597390B2, “Indoles for use in influenza virus infection” (Janssen Sciences Ireland UC, priority 2014, dated 2020).
Where a name gives a salt, the structure may show the parent alone.

Experiments:
[1] = in vitro; details: dog, TOX MDCK CC50
[2] = system: influenza virus A/Taiwan/1/86 (H1N1); experiment: organism not typed; type: cell-based; details: CPE in MDCK cells, three days post-virus exposure, ATPlite

Row | Structure (SMILES) | melting point [°C] | CC50 at 3 days [1] [nM] | IC50 ([2]; MDCK, 72 h) [nM] | IC50 [2] [nM]
1 | Nc1n[nH]c(C(=O)N[C@@H]2CCC[C@H](Nc3nc(-c4c[nH]c5c(F)cc(F)cc45)ncc3F)C2)n1 | > 300 |  |  | 
2 | O=C(N[C@@H]1CCC[C@H](Nc2nc(-c3c[nH]c4c(F)cc(F)cc34)ncc2F)C1)c1nnn[nH]1 | 270.2 |  |  | 
3 | Cc1cc(F)c2[nH]cc(-c3ncc(F)c(N[C@H]4C5CCC(CC5)[C@@H]4C(=O)O)n3)c2c1 (mixture of isomers) (as salt: TFA) [Compound 164] | > 250 |  |  | 
4 | Cc1cc(F)c2[nH]cc(-c3ncc(F)c(N[C@@H]4CCC[C@@H](NC(=O)N5CCCC5)C4)n3)c2c1 (racemic) [Compound 20] | 94 | 15100 | 12 | 
5 | Cc1cc(F)c2[nH]cc(-c3ncc(F)c(N[C@@H]4CCC[C@H](NC(=O)c5ccccn5)C4)n3)c2c1 (racemic) [Compound 21] | 208 | 4800 | 4 | 
6 | Cn1nc(CO)cc1C(=O)N[C@@H]1CCC[C@H](Nc2nc(-c3c[nH]c4c(F)cc(F)cc34)ncc2F)C1 (relative stereo) [Compound 262, N-((1R*,3S*)-3-((2-(5,7-difluoro-1H-indol-3-yl)-5-fluoropyrimidin-4-yl)-amino)cyclohexyl)-3-(hydroxymethyl)-1-methyl-1H-pyrazole-5-carboxamide] |  | > 25000 | 46 | 
7 | O=C(N[C@H]1CCC[C@@H](Nc2nc(-c3c[nH]c4c(F)cc(F)cc34)ncc2F)C1)N1CCCC1 (single isomer, unassigned) [Compound 9, N-((1R*,3S*)-3-((2-(5,7-difluoro-1H-indol-3-yl)-5-fluoropyrimidin-4-yl)-amino)cyclohexyl)pyrrolidine-1-carboxamide] |  | > 25000 | 3 | 
8 | CC(C)(C)[C@H](CC(=O)O)Nc1nc(-c2c[nH]c3c(F)cc(F)cc23)c(C(F)(F)F)cc1F (single isomer, unassigned) [Compound 17, (S*)-3-((6-(5,7-difluoro-1H-indol-3-yl)-3-fluoro-5-(trifluoromethyl)pyridin-2-yl)amino)-4,4-dimethylpentanoic acid] |  | 6200 | 37 | 
9 | CC(C)(C)[C@@H](CC(=O)O)Nc1nc(-c2c[nH]c3c(F)cc(F)cc23)c(C(F)(F)F)cc1F (single isomer, unassigned) [Compound 18, (R*)-3-((6-(5,7-difluoro-1H-indol-3-yl)-3-fluoro-5-(trifluoromethyl)pyridin-2-yl)amino)-4,4-dimethylpentanoic acid] |  | 210 | > 25000 | 
10 | CC(C)(C)C(Cc1nnn[nH]1)Nc1nc(-c2c[nH]c3c(F)cc(F)cc23)ncc1F (centres unmarked) [Compound 19, 2-(5,7-difluoro-1H-indol-3-yl)-N-(3,3-dimethyl-1-(1H-tetrazol-5-yl)butan-2-yl)-5-fluoropyrimidin-4-amine] |  | 3700 | 160 | 
11 | Cc1cc(F)c2[nH]cc(-c3nc(NC(CC(=O)O)C(C)(C)c4ccn(C)n4)c(F)cc3C#N)c2c1 (centres unmarked) [Compound 25, 3-((5-cyano-3-fluoro-6-(7-fluoro-5-methyl-1H-indol-3-yl)pyridin-2-yl)amino)-4-methyl-4-(1-methyl-1H-pyrazol-3-yl)pentanoic acid] |  | 900 | 41 | 
12 | Cn1cnc(C(=O)N[C@@H]2CCC[C@H](Nc3nc(-c4c[nH]c5c(F)cc(Cl)cc45)ncc3F)C2)c1 [Compound 26] |  | 7900 | 3 | 
13 | O=C(O)[C@H]1C2CCC(CC2)[C@@H]1Nc1nc(-c2c[nH]c3c(F)cc(Cl)cc23)ncc1F [Compound 30] |  | 200 | 3 | 
14 | CC(C)(C)C(CC(=O)O)Nc1nc(-c2c[nH]c3c(F)cc(Cl)cc23)ncc1F (centres unmarked) [Compound 39] |  | 860 | 11 | 
15 | CC(C)(C)[C@H](CC(=O)O)Nc1nc(-c2c[nH]c3c(F)cc(Cl)cc23)ncc1F [Compound 40] |  | 400 | 5 | 
16 | Cc1[nH]nnc1C(=O)N[C@@H]1CCC[C@H](Nc2nc(-c3c[nH]c4c(F)cc(Cl)cc34)ncc2F)C1 [Compound 78] |  | 5700 | 2 | 
17 | CN1CCC[C@H]1C(=O)N[C@H]1CCC[C@@H](Nc2nc(-c3c[nH]c4c(F)cc(F)cc34)ncc2F)C1 [Compound 82] |  | 12900 | 270 | 
18 | Cn1nc(N)cc1C(=O)N[C@@H]1CCC[C@H](Nc2nc(-c3c[nH]c4c(F)cc(F)cc34)ncc2F)C1 [Compound 85] |  | > 25000 | 2 | 
19 | Cc1[nH]nc(C(=O)N[C@@H]2CCC[C@H](Nc3nc(-c4c[nH]c5c(F)cc(F)cc45)ncc3F)C2)c1N [Compound 86] |  | 3100 | 2 | 
20 | COCc1cc(C(=O)N[C@@H]2CCC[C@H](Nc3nc(-c4c[nH]c5c(F)cc(F)cc45)ncc3F)C2)no1 [Compound 87] |  | 2400 | 40 | 
21 | O=C(N[C@@H]1CCC[C@H](Nc2nc(-c3c[nH]c4c(F)cc(F)cc34)ncc2F)C1)c1cn(CCO)cn1 [Compound 88] |  | 11500 | 7 | 
22 | C=Cn1cnc(C(=O)N[C@@H]2CCC[C@H](Nc3nc(-c4c[nH]c5c(F)cc(F)cc45)ncc3F)C2)c1 [Compound 89] |  | 7300 | 4 | 
23 | CCn1ccnc1C(=O)N[C@@H]1CCC[C@H](Nc2nc(-c3c[nH]c4c(F)cc(F)cc34)ncc2F)C1 [Compound 125] |  | 10200 | 4 | 

Row | Structure (SMILES) | melting point [°C] | CC50 at 3 days [1] [nM] | IC50 ([2]; MDCK, 72 h) [nM] | IC50 [2] [nM]
24 | O=C(O)c1cccc(C(=O)N[C@@H]2CCC[C@H](Nc3nc(-c4c[nH]c5c(F)cc(F)cc45)ncc3F)C2)n1 [Compound 157] |  | > 25000 | 330 | 
25 | O=C(N[C@@H]1CCC[C@H](Nc2nc(-c3c[nH]c4c(F)cc(F)cc34)ncc2F)C1)c1cc(=O)[nH][nH]1 [Compound 158] |  | 13000 | 15 | 
26 | Cn1[nH]c(=O)cc1C(=O)N[C@@H]1CCC[C@H](Nc2nc(-c3c[nH]c4c(F)cc(F)cc34)ncc2F)C1 [Compound 160] |  | > 25000 | 0.6 | 
27 | N#Cc1cc(F)c(N[C@@H]2CCC[C@H](NC(=O)N3CCCC3)C2)nc1-c1c[nH]c2c(F)cc(F)cc12 [Compound 162] |  | > 23000 |  | 0.5
28 | Cc1cc(F)c2[nH]cc(-c3ncc(F)c(N[C@@H]4C5CCC(CC5)[C@H]4C(=O)O)n3)c2c1 [Compound 165] |  | 2300 | > 25000 | 
29 | Cn1cnc(C(=O)N[C@H]2CCC[C@H](Nc3nc(-c4c[nH]c5c(F)cc(F)cc45)c(C#N)cc3F)C2)c1 [Compound 183] |  | > 25000 | 1100 | 
30 | Cn1cnc(C(=O)N[C@@H]2CCC[C@H](Nc3nc(-c4c[nH]c5c(F)cc(F)cc45)c(C#N)cc3F)C2)c1 [Compound 184] |  | > 25000 | 3 | 
31 | Cn1cnc(C(=O)N[C@@H]2CCC[C@H](Nc3nc(-c4c[nH]c5c(F)cc(Cl)cc45)c(C#N)cc3F)C2)c1 [Compound 185] |  | 10200 | 4 | 
32 | CC(C)(C)[C@H](CC(=O)O)Nc1nc(-c2c[nH]c3c(F)cc(F)cc23)ncc1F [Compound 186] |  | 3800 | 10 | 
33 | O=C(N[C@@H]1CCC[C@H](Nc2nc(-c3c[nH]c4c(F)cc(Cl)cc34)ncc2F)C1)c1ccccn1 [Compound 188] |  | 11000 |  | 5
34 | Cn1cnc(C(=O)NC2CC(Nc3nc(-c4c[nH]c5c(F)cc(F)cc45)ncc3F)CC(C)(C)C2)c1 (centres unmarked) [Compound 202, N-(5-((2-(5,7-difluoro-1H-indol-3-yl)-5-fluoropyrimidin-4-yl)amino)-3,3-dimethylcyclohexyl)-1-methyl-1H-imidazole-4-carboxamide] |  | 3900 | 790 | 
35 | O=C(N[C@@H]1CCC[C@H](Nc2nc(-c3c[nH]c4c(F)cc(F)cc34)ncc2F)C1)c1ccc(O)nn1 [Compound 203] |  | > 25000 | 2 | 
36 | Cc1cc(C(=O)N[C@@H]2CCC[C@@H](Nc3nc(-c4c[nH]c5c(F)cc(F)cc45)c(C#N)cc3F)C2)no1 [Compound 204] |  | 6800 | 10 | 
37 | N#Cc1cc(F)c(N[C@H]2CCC[C@@H](NC(=O)[C@@H](O)c3ccccc3)C2)nc1-c1c[nH]c2c(F)cc(F)cc12 [Compound 213] |  | 3400 | 390 | 
38 | CC(C)(C)C(CC(=O)O)Nc1nc(-c2c[nH]c3c(F)cc(F)cc23)c(C#N)cc1F (centres unmarked) [Compound 219] |  | 210 | 5 | 
39 | CC(C)(c1cccs1)C(CC(=O)O)Nc1nc(-c2c[nH]c3c(F)cc(F)cc23)ncc1F (centres unmarked) [Compound 230] |  | 4000 | 41 | 
40 | CC1(C(CC(=O)O)Nc2nc(-c3c[nH]c4c(F)cc(F)cc34)ncc2F)CCCC1 (centres unmarked) [Compound 249] |  | 1200 | 11 | 
41 | CC[C@@]1(C(=O)O)CCCC[C@H]1Nc1nc(-c2c[nH]c3c(F)cc(F)cc23)ncc1F [Compound 253] |  | 15200 | 120 | 
42 | O=C(O)[C@@H]1CCCC[C@@H]1Nc1nc(-c2c[nH]c3c(F)cc(F)cc23)ncc1F [Compound 254] |  | 14700 | 320 | 
43 | CCOC(=O)NCc1cc(F)c(NC(CC(=O)O)C(C)(C)C)nc1-c1c[nH]c2c(F)cc(F)cc12 (centres unmarked) [Compound 256] |  | 13100 | 290 | 
44 | CC(C)(C)[C@@H](CO)Nc1nc(-c2c[nH]c3c(F)cc(F)cc23)c(C#N)cc1F [Compound 257, (S)-2-(5,7-difluoro-1H-indol-3-yl)-5-fluoro-6-((1-hydroxy-3,3-dimethyl-butan-2-yl)amino)nicotinonitrile] |  | 7000 | 130 | 
45 | O=C(NC1COCC(Nc2nc(-c3c[nH]c4c(F)cc(F)cc34)ncc2F)C1)c1cnn[nH]1 (centres unmarked) [Compound 261, N-(5-((2-(5,7-difluoro-1H-indol-3-yl)-5-fluoropyrimidin-4-yl)amino)-tetrahydro-2H-pyran-3-yl)-1H-1,2,3-triazole-5-carboxamide] |  | > 25000 | 1000 | 
